Test results from patent publication US8329926B2, “Antiviral compounds” (Gilead Sciences, Inc., priority 2004, dated 2012).
Counter-ions that a name gives are not always drawn. Like-named read-outs stand apart in the source and are kept apart here.

Assays:
[1] = test system: HIV-1; experiment: Anti-HIV-1 activity (EC50); type: cell-based
[2] = test system: MT-2
[3] = test system: K65R; conditions: FIG. 1
[4] = test system: M184V; conditions: FIG. 1
[5] = test system: 6TAM; conditions: FIG. 1
[6] = test system: mtDNA; experiment: mtDNA IC50; type: cell-based

CCCOC(=O)[C@H](C)NP(=O)(CO[C@@H]1C=C(F)[C@H](n2cnc3c(N)ncnc32)O1)N[C@@H](C)C(=O)OCCC [drawing 144 (Ala) n-Propyl]
EC50 ([1]; Human immunodeficiency virus 1, FIG. 5, prodrugs by R1 (aa) and R2 (ester), read-out: EC50): 0.1 to 1 µM

C[C@H](Cn1cnc2c(N)ncnc21)OCP(=O)(O)O [Tenofovir]
CC50 [2]: < 1000 µM
Resistance - fold EC50 K65R [3]: +++ (+++=1-100)
Resistance - fold EC50 M184V [4]: ++++ (++++=0.01-1)
EC50 ([1]; FIG. 1, read-out: EC50 [uM] HIV-1): 1 to 100 µM
Resistance - fold EC50 6TAM [5]: +++ (+++=1-100)
IC50 ([6]; FIG. 1, read-out: mtDNA 1050): 100 to 1000 µM

Nc1ncnc2c1ncn2[C@@H]1O[C@H](OCP(=O)(O)O)C=C1F [2′F-d4AP, (2′R, 5′R)-9-(3-fluoro-2,5-dihydro-5-phosphonomethoxy-2-furanyl)adenine di sodium salt]
CC50 [2]: < 1000 µM
EC50 ([1]; read-out: EC50 [uM] HIV-1): 1 to 100 µM
IC50 ([6]; FIG. 2, read-out: IC50 [uM] mtDNA): 100 to 1000 µM

Nc1nc(N)c2ncn([C@@H]3O[C@H](OCP(=O)(O)O)C=C3F)c2n1 [2′F-d4DAPP]
EC50 ([1]; read-out: EC50 [uM] HIV-1): 100 to 1000 µM
